From patent US20260152502A1, “PIPERIDINYL-METHYL-PURINE AMINE SALTS, CRYSTALLINE FORMS, AND THEIR USE IN TREATING MEDICAL DISEASES AND CONDITIONS” (K36 THERAPEUTICS, INC., priority 2022, published 2026)

Legend:
Assay type in all cases: physicochemical
[1] = hygroscicity by dynamic vapor sorption; settings: transitioned from 5% to 95% relative humidity
Procedure: Dynamic vapor sorption was performed using a Q5000SA. The sample (5-15 mg) was loaded into a metallic quartz sample pan, suspended from a microbalance, and exposed to a humidified stream of nitrogen gas. Weight changes were relative to a matching empty reference pan opposite the sample, suspended from the microbalance. The sample was held for a minimum of 10 min at each humidity level and only progressed to the next humidity level if there was <0.002% change in weight between measurements (interval: 5 s) or 45 min had elapsed (for 5-65% RH) or 2 hours had elapsed (for 80 and 95% RH). The following program was used: • 1. Equilibration at 50% RH • 2. 50% to 5% (50%, 35%, 20%, and 5%) • 3. 5% to 95% (5%, 20%, 35%, 50%, 65%, 80%, and 95%) • 4. 95% to 5% (95%, 80%, 65%, 50%, 35%, 20%, and 5%) • 5. 5% to 50% (5%, 20%, 35%, and 50%).
The crystalline solid was analyzed for hygroscopicity.

[2] = accelerated stability study (75% relative humidity, 40° C., one week); settings: one week at 75% relative humidity
Procedure: An accelerated stability study was conducted on the crystalline solid. Approximately 10 mg of crystalline solid was placed into a 4 mL vial, and the vial was covered with a Kimwipe. The vial was stored for one week inside a stability chamber producing a relative humidity of 75% at 40° C.

[3] = water solubility of the crystalline solid; settings: pH 7.0 (phosphate buffer), 37° C., after 30 minutes

Row | Substance | increase in weight by dynamic vapor sorption [1] [%] | change of crystalline form by XRPD after the stability study [2] | HPLC purity after the stability study ([2]; 99.59 area percent before the study) [area percent] | water solubility (mg/mL of the free base (S)-1-((R)-3-amino-1-(...)piperidin-3-yl)-2,2-difluoroethan-1-ol) [3] [mg/mL]
1 | Maleic Acid Salt of (S)-1-((R)-3-amino-1-(4-((6-amino-9H-purin-9-yl)methyl)-6-(2,5-difluoro-4-methoxyphenyl)pyridin-3-yl)piperidin-3-yl)-2,2-difluoroethan-1-ol [Example 1] | 0.507 | no change of the crystalline form | 99.56 | –
2 | p-Toluenesulfonic Acid Salt of (S)-1-((R)-3-amino-1-(4-((6-amino-9H-purin-9-yl)methyl)-6-(2,5-difluoro-4-methoxyphenyl)pyridin-3-yl)piperidin-3-yl)-2,2-difluoroethan-1-ol [Example 3] | – | – | – | 1.61
